# Laboratory results as given in PubChem BioAssay (NCI).
#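 96-well plates; 48 h exposure; 5 concentrations. Endpoints by linear interpolation between flanking doses. Not reached: highest tested concentration assigned. Definition used: TGI = concentration required for complete inhibition of growth.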
# Assays:
# Assay in all cases: NCI tumour cell line growth inhibition, 48 h
# SF-268 CNS = test system: SF-268 CNS
# NCI-H226 lung = test system: NCI-H226 lung
# A549 NSCLC = test system: A549 NSCLC
# LOX IMVI melanoma = test system: LOX IMVI melanoma
# HT29 colon = test system: HT29 colon
# HL-60(TB) leukemia = test system: HL-60(TB) leukemia
# M14 melanoma = test system: M14 melanoma
# ACHN renal = test system: ACHN renal
# OVCAR-4 ovarian = test system: OVCAR-4 ovarian
# NCI/ADR-RES ovarian = test system: NCI/ADR-RES ovarian
# SK-OV-3 ovarian = test system: SK-OV-3 ovarian
# SK-MEL-5 melanoma = test system: SK-MEL-5 melanoma
# TK-10 renal = test system: TK-10 renal
Compound,TGI (SF-268 CNS),TGI (NCI-H226 lung),TGI (A549 NSCLC),TGI (LOX IMVI melanoma),TGI (HT29 colon),TGI (HL-60(TB) leukemia),TGI (M14 melanoma),TGI (ACHN renal),TGI (OVCAR-4 ovarian),TGI (NCI/ADR-RES ovarian),TGI (SK-OV-3 ovarian),TGI (SK-MEL-5 melanoma),TGI (TK-10 renal)
O=S1(=O)c2ccccc2NC(=S)N1c1ccccc1,> 100 µM,> 100 µM,> 100 µM,> 66.1 µM,> 100 µM,> 100 µM,> 100 µM,> 100 µM,> 100 µM,> 100 µM,> 100 µM,> 100 µM,> 100 µM
Cc1ccc(C(=O)c2[nH]c(Nc3cc(C)ccn3)c(C(=S)Nc3ccccc3)c2N)cc1,> 100 µM,> 100 µM,> 100 µM,> 100 µM,> 100 µM,> 100 µM,> 100 µM,> 100 µM,> 100 µM,> 100 µM,> 100 µM,> 100 µM,> 100 µM
Cc1ccc2c(c1)C(=O)/C(=C\c1ccc(Cl)cc1)CCS2(=O)=O,16.1 µM,14.2 µM,> 58.8 µM,6.43 µM,6.54 µM,5.26 µM,> 34.4 µM,3.83 µM,6.93 µM,5.52 µM,22.4 µM,7.8 µM,5.11 µM
OCC1OC(O[C@H]2CN3[C@H](O)[C@@H](O)[C@H](O)[C@H]3C2O)C(O)C(O)C1O (some centres undefined),> 100 µM,> 100 µM,> 100 µM,> 100 µM,> 100 µM,> 100 µM,> 100 µM,> 100 µM,> 100 µM,> 100 µM,> 100 µM,> 100 µM,> 100 µM
CCNC(=S)N/N=C/c1ccccn1,7.56 µM,22 µM,82.1 µM,> 100 µM,> 100 µM,23.2 µM,32.7 µM,70.7 µM,4.98 µM,> 100 µM,> 100 µM,19.9 µM,> 100 µM
CC/C=C\C/C=C\C/C=C\CCCCCCCC(=O)OC(COC(=O)CCCCCCCCCCCCCCCCC)COC1OC(CO)C(O)C(O)C1O (centres undefined),> 25 µM,> 25 µM,> 25 µM,> 25 µM,> 25 µM,> 25 µM,> 25 µM,> 25 µM,> 25 µM,> 25 µM,> 25 µM,> 25 µM,> 25 µM
CC1(C)[C@@H]2C[C@H]1c1cnc(-c3ccccn3)cc1[C@H]2C(O)[C@@H]1c2cc(-c3ccccn3)ncc2[C@H]2C[C@@H]1C2(C)C (some centres undefined),16.6 µM,0.502 µM,18.3 µM,4.52 µM,3.57 µM,0.112 µM,1.85 µM,1.54 µM,> 9.95 µM,1.41 µM,14.8 µM,1.42 µM,> 100 µM
NC(=S)N=Nc1c(O)cc(Nc2ccc(Cl)cc2Cl)c2ccccc12,> 100 µM,> 100 µM,> 100 µM,> 100 µM,> 100 µM,> 100 µM,> 100 µM,27.5 µM,> 100 µM,> 100 µM,61.5 µM,95.8 µM,> 100 µM
